Consider 2 molecules from paper PMC4467128 (Oncotarget, 2014).

Data set [1] concerns p-Akt (S473) in BJAB cells. As to the kind of experiment: Cell-based ELISA for p-Akt (S473), BJAB. The settings on record: Homo sapiens, 24 h, mean ± SEM, read-out: IC50 (Akt dephosphorylation, p-Akt S473). The procedure: After the treatment, cells were lysed with ice-cold lysis buffer mentioned above and equivalent aliquots of protein were subjected to a PathScan phospho-Akt1 (Ser473) sandwich ELISA kit (Cell Signaling Technology) following manufacture's instruction. In briefly, whole cell lysate was first half-diluted with sample diluent and added 100 μl into the well incubating overnight at 4°C. After the reaction, wells were washed 4 times with 200 μl wash buffer and then added 100 μl of Akt1 mouse detection antibody incubating 1 h at 37°C. Washed 4 times again and then added 100 μl of anti-mouse IgG HRP-linked antibody incubating 30 min at 37°C. After incubation, washed the well once again and then added 100 μl TMB substrate for color production and finally added 100 μl STOP solution. The results were measured by spectrophotometer at wavelength 450 nm.
A general note: An ELISA detects its analyte on a solid surface through an enzyme-linked reagent.

The test system of data set [2] is Ramos cells. The data set is described as follows: Ramos engraftment survival model in NOD/SCID mice. In kind it is in vivo. The conditions noted are these: daily oral gavage, MPT0E028 100 mg/kg, SAHA 200 mg/kg. From the text:
(§1) The mice were carefully maintained and all animal procedures were in accordance with the Institutional Animal Care and Use Committee procedures and guidelines. All animal experiments followed ethical standards, and protocols has been reviewed and approved by Animal Use and Management Committee of National Taiwan University (IACUC Approval No: 20100225).
In Ramos engrafment model, human B-cell lymphoma Ramos cells were resuspended at 10^7 cells/ml in culture medium at room temperature, and 2×10^6 cells were inoculated into male NOD/SCID mice via tail vein. Treatment began 1 week after engrafment. […] Survival rate was used as end point for this study.

A further data set deals with BJAB tumors. The data set is described as follows: BJAB xenograft tumor growth model in nude mice. The data set is classed as in vivo. The settings on record: po, qd, 31 days. The procedure:
as §1
In BJAB xenograft model, the male nude mice were injected subcutaneously with the same volume of BD Matrigel Matrix HC (BD bioscience, catalog 354248) and BJAB cells (2×10^7 cell/mouse) into the flank of each animal. […] Tumor size was measured twice weekly and calculated from V = 0.5 lw^2, where w = width (w) and l = length (l). At the end of study, tumors were carefully removed and frozen in liquid nitrogen for subsequent western analysis.

The subject of a further data set is HUVEC cells. As to the kind of experiment: MTT cell viability assay, normal HUVEC cells. In kind it is cell-based. The conditions noted are these: Homo sapiens, 24 h, read-out: IC50 (cell viability, toxicity). The procedure: (§2) Two fast-growing malignant B cell lymphoma (Burkitt lymphoma) cell lines and human umbilical vein endothelial cells (HUVEC) were used. Ramos and HUVEC cells were purchased from American Type Culture Collection (Manassas, VA, USA) and BJAB cells were a kind gift from Professor Ping-Ning Hsu (National Taiwan University Hospital and National Taiwan University, College of Medicine, Taipei, Taiwan). […] All cells were maintained in humidified air containing 5% CO2 at 37°C. Cell density was maintained between 1×10^5 and 1×10^6 cell/ml and passaged every 2 to 3 days.
(§3) Cell viability was assessed by MTT assay. […] After the treatment, 100 μl of 0.5 mg/ml 3-(4,5-Dimethylthiazol-2-yl)-2,5-diphenyl-tetrazolium bromide (MTT) were added to each well and incubated at 37°C to stained cells forming an insoluble blue formazan product. After 1 h incubation, 100 μl of extraction reagent (0.1M sodium acetate buffer or DMSO) were added to each well and mix thoroughly to lyse cells. The plates were then measured at 550 nm using an enzyme-linked immunosorbent assay (ELISA) reader (Packard, Meriden, CT, USA).
A general note: Tetrazolium assays rely on reduction of a dye to a coloured formazan, in cell work by metabolically active cells.

The test system of data set [3] is Ramos cells. As to the kind of experiment: MTT cell viability assay, Ramos B-cell lymphoma cells. The data set is classed as cell-based. The conditions noted are these: Homo sapiens, 24 h, mean ± SEM, read-out: IC50 (growth inhibition). The procedure:
as §2, §3

For another data set, the system named is BJAB cells. The data set is described as follows: MTT cell viability assay, BJAB B-cell lymphoma cells. In kind it is cell-based. The settings on record: Homo sapiens, 24 h, mean ± SEM, read-out: IC50 (growth inhibition). The procedure:
as §2, §3

The target of the next data set is Akt (Homo sapiens, UniProt P31749). As to the kind of experiment: Enzyme-based Akt kinase activity assay (Kinome Diversity Screen, ELISA quantitation). The data set is classed as biochemical. The settings on record: crosstide substrate. The procedure: In briefly, Akt activity was assayed using human recombinant insect Sf21 cells for Akt kinase source and crosstide peptide ([…], 15 μg/mL) as a substrate. Cell lysate was incubated with kinase assay buffer (50 mM HEPES pH 7.4, 10 mM MgCl2, 0.2 mM Na3VO4, and 1 mM DTT) for 60 min at 25°C, and analyzed by ELISA quantitation of Crosstide-P.
Chain of Akt (P31749 whole entry): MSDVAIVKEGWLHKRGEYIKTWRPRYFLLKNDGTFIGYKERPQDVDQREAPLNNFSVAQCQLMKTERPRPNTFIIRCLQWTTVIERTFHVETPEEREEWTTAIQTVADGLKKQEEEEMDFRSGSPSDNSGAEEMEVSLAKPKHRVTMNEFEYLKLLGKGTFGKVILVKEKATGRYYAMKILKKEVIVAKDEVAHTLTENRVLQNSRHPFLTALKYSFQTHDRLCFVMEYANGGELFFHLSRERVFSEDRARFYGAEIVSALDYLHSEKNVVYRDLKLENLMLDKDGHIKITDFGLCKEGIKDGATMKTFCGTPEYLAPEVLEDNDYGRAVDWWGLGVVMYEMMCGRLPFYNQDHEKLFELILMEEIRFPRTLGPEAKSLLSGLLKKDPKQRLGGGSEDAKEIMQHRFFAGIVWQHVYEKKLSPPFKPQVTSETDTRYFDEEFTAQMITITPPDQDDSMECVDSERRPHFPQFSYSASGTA

Data set [4] can be described thus: Body weight of BJAB tumor bearing mice. The data set is classed as in vivo. The settings on record: nude mice, 50-200 mg/kg, po, qd, 31 days. The procedure: The mice were carefully maintained and all animal procedures were in accordance with the Institutional Animal Care and Use Committee procedures and guidelines. […] Tumor size was measured twice weekly and calculated from V = 0.5 lw^2, where w = width (w) and l = length (l). At the end of study, tumors were carefully removed and frozen in liquid nitrogen for subsequent western analysis.

The subject of a further data set is HDAC1, 2, 6, and 8. The conditions noted are these: range over the four isoforms; cited from earlier work.
The next data set concerns HDAC4. The conditions noted are these: cited from earlier work.
The subject of data set [5] is HDAC enzyme activity in BJAB cells. As to the kind of experiment: Cell-based HDAC fluorescence activity assay, BJAB. The settings on record: Homo sapiens, 24 h, read-out: IC50 (HDAC enzyme activity).
Method: (§4) After the incubation, the lysine developer in this kit was added and the mixture was incubated for another 30 min at 37°C.
Data set [6] concerns HDAC enzyme activity in Ramos cells. As to the kind of experiment: Cell-based HDAC fluorescence activity assay, Ramos. The settings on record: Homo sapiens, 24 h, read-out: IC50 (HDAC enzyme activity).
Method: as §4

In the case of `O=C(CCCCCCC(=O)Nc1ccccc1)NO` [SAHA, reference compound], the 50% inhibitory concentration (IC50) in [1] came out at 32.9 ± 11.3 µM. For the same molecule, in the data set with Ramos cells [2], the “Survival rate compared with control group” value was “no significant efficacy”. The molecule also had a TGI in the data set with BJAB tumors (200 mg/kg) of 17.9%.
Turning to `O=C(C=Cc1ccc2c(c1)CCN2S(=O)(=O)c1ccccc1)NO` [MPT0E028, 3-(1-Benzenesulfonyl-2,3-dihydro-1H-indol-5-yl)-N-hydroxy-acrylamide], the IC50 is more than 30 µM in the data set on HUVEC cells; 0.65 ± 0.1 µM in the data set on Ramos cells [3]; 1.45 ± 0.5 µM with BJAB cells; 5.78 µM on Akt; 5.9 ± 1.6 µM in data set [1]; 0.0295 to 2.53 µM in the data set on HDAC1, 2, 6, and 8. Also, the IC50 was 4.54 ± 1.2 µM in data set [5] and 2.88 ± 1.9 µM in data set [6]. In the data set on Ramos cells [2], the “Survival rate compared with control group” value is on record as “significantly prolonged”. Besides, the figures for the TGI with BJAB tumors (100 mg/kg) and in the data set on BJAB tumors (200 mg/kg) were 20.8% and 40.4%, respectively. For the same molecule, the “Body weight difference between groups” value in [4] is on record as “no significant difference in body weight”. For the same molecule, the “effect upon HDAC4” value in the data set on HDAC4 is reported as “no effect”.

As a reminder, the IC50 is the concentration at which inhibition is half-maximal. What is called TGI is the reduction of tumour growth relative to the control group. A higher TGI goes with a stronger effect on the tumour.
